# From PMC7144182, “Synthesis, biological evaluation and molecular modelling of 2,4-disubstituted-5-(6-alkylpyridin-2-yl)-1H-imidazoles as ALK5 inhibitors” (Journal of Enzyme Inhibition and Medicinal Chemistry, 2020)
# Marks after values point to notes of the source that are not given here.
# Tests used:
# [1] = target: T1, purified human ALK5 kinase domain (Homo sapiens, UniProt P36897); assay: ALK5 kinase assay (33PanQinase, casein as substrate); assay type: biochemical; settings: for IC50: casein substrate, 1 μM ATP, singlicate (11e: mean of triplicates); for fold less potent than the corresponding 6-methylpyridyl analogue: vs 11a, 11e, 16a, 16e respectively
# T1 construct: using the purified human ALK5 kinase domain produced in Sf9 insect cells; host or cells: Sf9 insect cells
# T1 sequence (P36897 205-495 limits assumed): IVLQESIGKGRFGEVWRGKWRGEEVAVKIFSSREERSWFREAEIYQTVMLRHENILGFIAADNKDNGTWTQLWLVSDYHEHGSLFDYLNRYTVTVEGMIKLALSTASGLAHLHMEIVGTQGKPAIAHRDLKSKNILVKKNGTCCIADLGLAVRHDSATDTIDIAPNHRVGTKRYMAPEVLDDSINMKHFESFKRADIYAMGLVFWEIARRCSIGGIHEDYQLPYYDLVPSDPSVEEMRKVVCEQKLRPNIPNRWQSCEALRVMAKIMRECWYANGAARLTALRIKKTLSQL
# Method: To evaluate whether these potential inhibitors 7a–c, 11a–h, and 16a–h could inhibit ALK5, a kinase assay was performed using the purified human ALK5 kinase domain produced in Sf9 insect cells and casein as a substrate (Table 1).
# [2] = system: TGF-β1-induced luciferase reporter activity, HaCaT (3TP-luc) stable cells; assay: Cell-based p3TP-luciferase reporter assay; settings: for % inhibition in luciferase reporter assay: 0.1 µM inhibitor; for p3TP-luciferase activity (% control): 0.1 μM inhibitor, TGF-β1 2 ng/mL, 24 h, mean ± SD of three independent experiments
# Method: To establish HaCaT (3TP-luc) stable cells, cells were seeded on six-well plates. Cells were allowed to adhere overnight and then transfected with the p3TP-luc (neo) expression plasmid using PEI reagent (Sigma Aldrich). Transfected cells were cultured for four weeks in the presence of G418 (500 µg/mL). Several single clones were isolated and measured luciferase activity. The clone showing response to TGF-β1 treatment was used for reporter assay. HaCaT (3TP-luc) stable cells were seeded at 2.5 × 10^4 cells/well in 96-well plate and were allowed to adhere overnight. Cells were concomitantly treated with TGF-β1 (2 ng/mL) and indicated concentrations of ALK5 inhibitors in 0.2% FBS medium and incubated for 24 h at 37 °C in 5% CO2. Cell lysates were prepared using Luciferase Assay System (Promega) according to the manufacturer’s instruction, and luminescence was measured by a luminometer, Micro Lumat Plus (Berthold, Germany).
# Caco-2 cells = assay: Caco-2 cell permeability assay; assay type: in vitro ADME; settings: 100 µM, AP to BL, 2 h; mean ± SD of quadruplicates
# Method: Caco-2 cells were seeded in Transwell® polycarbonate filter at a density of 8 × 10^4 cells/filter and cultured for 21 days. Culture medium was removed from both apical (AP) and basolateral (BL) chambers of transwell, and the wells were rinsed three times with PBS. AP buffer (HBSS, pH 6.5) containing 10 mM MES and BL buffer (HBSS, pH 7.4) containing 10 mM HEPES were loaded in AP (500 µL) and BL (1500 µL) chambers, respectively, followed by incubation for 30 min at 37 °C. Then, test compound (100 µM) was added to the AP side and incubated for 2 h at 37 °C. After the incubation, BL buffer was collected and analysed using an UV spectrophotometer at a maximum wavelength (wavelength 225–357 nm).
# To estimate oral absorption of target compounds, their permeability in a Caco-2 monolayer was evaluated at a concentration of 100 µM (Table 1).
Structure (SMILES),IC50 [1],Caco-2 permeability (%) (Caco-2 cells),fold higher ALK5 inhibitory activity than 7a ([1]; kinase assay),fold higher ALK5 inhibitory activity than 7c ([1]; kinase assay),"fold more potent than the benzo[1,3]dioxol-5-yl analogue ([1]; 11a vs 7a, 16a vs 7b, kinase assay)",fold less potent than the corresponding 6-methylpyridyl analogue ([1]; kinase assay),% inhibition in luciferase reporter assay [2],p3TP-luciferase activity (% control) [2]
"Cc1cccc(-c2[nH]c(CCCc3ccc(C(N)=O)cc3)nc2-c2ccc3c(c2)OCO3)n1 [Compound 7c, 4-(3-(4-(Benzo[d][1,3]dioxol-5-yl)-5-(6-methylpyridin-2-yl)-1H-imidazol-2-yl)propyl)benzamide]",0.338 µM,32 ± 1.1%,–,–,–,–,40 % inhibition,60 ± 9.5 % control
"CC(C)c1cccc(-c2[nH]c(Cc3ccc(C(N)=O)cc3)nc2-c2ccc3nccnc3c2)n1 [Compound 11c, 4-((5-(6-Isopropylpyridin-2-yl)-4-(quinoxalin-6-yl)-1H-imidazol-2-yl)methyl)benzamide]",2.19 µM,30 ± 9.0%,–,–,–,13–35 fold,–,39 ± 11.4 % control
"CCCCc1cccc(-c2[nH]c(Cc3ccc(C(N)=O)cc3)nc2-c2ccc3nccnc3c2)n1 [Compound 11d, 4-((5-(6-n-Butylpyridin-2-yl)-4-(quinoxalin-6-yl)-1H-imidazol-2-yl)methyl)benzamide]",2.7 µM,41 ± 5.3%,–,–,–,–,–,85 ± 32.5 % control
"CCCCc1cccc(-c2[nH]c(Cc3cccc(C(N)=O)c3)nc2-c2ccc3nccnc3c2)n1 [Compound 11h, 3-((5-(6-n-Butylpyridin-2-yl)-4-(quinoxalin-6-yl)-1H-imidazol-2-yl)methyl)benzamide]",1.04 µM,–,–,–,–,–,–,83 ± 21.1 % control

# Continued, in another order:
IC50 [1],Caco-2 permeability (%) (Caco-2 cells),fold higher ALK5 inhibitory activity than 7a ([1]; kinase assay),fold higher ALK5 inhibitory activity than 7c ([1]; kinase assay),"fold more potent than the benzo[1,3]dioxol-5-yl analogue ([1]; 11a vs 7a, 16a vs 7b, kinase assay)",fold less potent than the corresponding 6-methylpyridyl analogue ([1]; kinase assay),Structure (SMILES),% inhibition in luciferase reporter assay [2],p3TP-luciferase activity (% control) [2]
0.224 µM,35 ± 0.7^f %,–,–,–,–,"Cc1cccc(-c2[nH]c(Cc3ccc(C(N)=O)cc3)nc2-c2ccc3c(c2)OCO3)n1 [Compound 7a, 4-((4-(Benzo[d][1,3]dioxol-5-yl)-5-(6-methylpyridin-2-yl)-1H-imidazol-2-yl)methyl)benzamide]",72 % inhibition,28 ± 7.1 % control
0.093 µM,23 ± 3.0%,2.4 fold,3.6 fold,–,–,"Cc1cccc(-c2[nH]c(CCc3ccc(C(N)=O)cc3)nc2-c2ccc3c(c2)OCO3)n1 [Compound 7b, 4-(2-(4-(Benzo[d][1,3]dioxol-5-yl)-5-(6-methylpyridin-2-yl)-1H-imidazol-2-yl)ethyl)benzamide]",74 % inhibition,26 ± 7.9 % control
0.088 µM,25 ± 1.3%,–,–,2.5 fold,–,"Cc1cccc(-c2[nH]c(Cc3ccc(C(N)=O)cc3)nc2-c2ccc3nccnc3c2)n1 [Compound 11a, 4-((5-(6-Methylpyridin-2-yl)-4-(quinoxalin-6-yl)-1H-imidazol-2-yl)methyl)benzamide]",84 % inhibition,16 ± 4.5 % control
0.112 µM,26 ± 3.5%,–,–,–,1.3 fold,"CCc1cccc(-c2[nH]c(Cc3ccc(C(N)=O)cc3)nc2-c2ccc3nccnc3c2)n1 [Compound 11b, 4-((5-(6-Ethylpyridin-2-yl)-4-(quinoxalin-6-yl)-1H-imidazol-2-yl)methyl)benzamide]",–,33 ± 21.3 % control
0.075 µM,38 ± 13.8%,–,–,–,2.1 fold,"CCc1cccc(-c2[nH]c(Cc3cccc(C(N)=O)c3)nc2-c2ccc3nccnc3c2)n1 [Compound 11f, 3-((5-(6-Ethylpyridin-2-yl)-4-(quinoxalin-6-yl)-1H-imidazol-2-yl)methyl)benzamide]",–,17 ± 3.7 % control
